According to patent publication US20170002373A1, “METHOD OF PRODUCING LEAFY BIOMASS” (Imperial Innovations Limited, priority 2009, published 2017):

What was measured:
GFP-6 calli = assay: Shoot induction from transplastomic calli on solid MS medium; assay type: cell-based, Nicotiana tabacum Petit Havana; conditions: data not shown; for shoot formation from calli: GFP-6 calli grown on solid MS medium with TDZ, shoots after 6 weeks
[1] = test system: transplastomic cell suspensions from the tobacco GFP-6 line; assay: Shoot/leafy biomass production from cell suspensions in temporary immersion bioreactor; assay type: cell-based, Nicotiana tabacum Petit Havana; conditions: 2-L temporary immersion bioreactor, MS media supplemented with 0.1 μM TDZ, after about six weeks
Method: Given that transplastomic gene expression seemed to be highest in leaf tissue we sought to develop a method for the rapid production of leaf tissue from callus/cell suspensions. […] In order to scale up the production capacity, transplastomic cell suspensions from the tobacco GFP-6 line were loaded into a 2-L bioreactor and temporally submerged in MS media supplemented with 0.1 μM TDZ. […] During the first 14 days, no growth could be detected and shoots only started to grow after this period. Possibly this lag period is related to the time needed for cells to redifferentiate from callus tissue to leafy tissue in tobacco in a similar manner to the observed switch between calli and meristematic tissues in Arabidopsis thaliana (Gordon et al, 2007).
Tobacco biomass was generated by placing about 7 grams of Nicotiana tabacum Petit Havana cell suspensions in a 2-L temporary immersion bioreactor (Ducos et al, 2007). Immersions were performed over a 40-day period with 1-L MS media supplemented with 0.1 μM Thidiazuron (TDZ, Sigma, UK) every three hours for 5 min. Additionally, the media contained 100 mg/L of spectinomycin to prevent contamination and to select for transplastomic cells. The TDZ (Thidiazuron) concentration in MS media was estimated to be optimal at 0.1 μM by researchers in Nestle, based on calli solid induction in Petri dishes (data not shown). […]

O=C(Nc1ccccc1)Nc1cnns1 [Thidiazuron]
shoot formation from calli (GFP-6 calli): able to induce shoot formation | shoot formation from calli (GFP-6 calli; listed as thidiazuron): induced the formation of shoots from calli | optimal TDZ concentration in MS media (GFP-6 calli; based on calli solid induction in Petri dishes, estimated by researchers in Nestle): 0.1 µM | shoot formation from cell suspensions [1]: a large number of shoots were produced
